We go through two compounds from publication PMC12990037, “Discovery of Two Structurally Distinct Classes of Inhibitors Targeting the Nuclease MUS81 and Enhancing Efficacy of Chemotherapy in Cancer Cells” (Journal of Medicinal Chemistry, 2026).

One experiment concerns MUS81. Further details: method as in PMID 37352577. The following applies: FRET-based DNA cleavage assay; cited from earlier work.
The test system of another experiment is U2OS, HEK293, and CAL51. Description: Cell proliferation assay (CyQUANT), combination with cisplatin. To be noted: cisplatin alone, 5 days. Format: cell-based. The method, then:
7 MUS81 inhibitors synergize with cisplatin to reduce cancer cell viability. (A,B) U2OS cells were treated with DMSO, MU262, or MU876 at the indicated concentrations in combination with a range of cisplatin (0–5 μM) for 96–120 h. Cell viability was assessed by the Cy-Quant assay. The survival was normalized to the DMSO-treated control. Graphs were generated in Graphpad Prism using the nonlinear regression fitting model. n ≥ 3, error bars represent s.d. (C) CAL51 WT cells were treated with DMSO, MU262, or MU876 at the indicated concentrations at each passage over 2 weeks. Cisplatin (12 μM) was added for the last 24 h before harvest. DNA damage was assessed by quantifying γH2AX foci using fluorescence microscopy and CellProfiller software. Data were visualized plotted in R software. Red markers represent the median of γH2AX foci number per nucleus; blue markers represent the percentage of cells with ≥20 γH2AX foci per nucleus. n = 3, error bars represent s.d.; ****p <0.0001 (unpaired, two-tailed t-test). TEXT PRINTED IN THE PICTURE: (C) D: γH2AX foci: 2.4 (DMSO); γH2AX foci: 59.6 (Cisplatin) | (C) MU262: γH2AX foci: 2.3 (1 μM; DMSO); γH2AX foci: 3 (2 μM; DMSO); γH2AX foci: 55.4 (1 μM; Cisplatin); γH2AX foci: 43.2 (2 μM; Cisplatin) | (C) MU876: γH2AX foci: 2.8 (0.25 μM; DMSO); γH2AX foci: 0.9 (0.5 μM; DMSO); γH2AX foci: 48.2 (0.25 μM; Cisplatin); γH2AX foci: 42.6 (0.5 μM; Cisplatin) DOUBTS OF THE COPYIST ABOUT THIS PICTURE: Panel C: the numbers in the blue markers have no measure or unit of their own printed in the picture; the axis title 'γH2AX foci' is given as the measure, but the numbers may stand for another quantity. / Panel C: 'D' is a control column with no concentration; it may not count as a substance. / Panel C: small white print on blue markers; 59.6, 55.4, 48.2, 43.2, 42.6, 2.8 and 0.9 are best readings (3, 5, 6, 8 and 9 are hard to tell apart).
CAL51 WT, CAL51 MUS81^–/–, U2OS, and HEK293 cells were seeded in a 96-well plate and treated with the respective concentration of selected inhibitors. […]

pIC50: −log10 of the molar value.

For `O=C(N/N=C/c1cc(O)c(O)cc1O)c1cc2ccccc2cc1O` [Dyngo-4a], in the experiment on MUS81, the pIC50 (commonly −log10 of the IC50, conventionally taken in molar units) is 6.24. `N.N.[Cl][Pt][Cl]` [cisplatin, reference compound]: in the experiment with U2OS, HEK293, and CAL51, the cell viability result was “dose-dependent decrease of viability”.
